Assay results taken from PubChem BioAssay AID2060901 (Molecular Pharmacology Branch, DTP, NCI, 2025).
pIC50: −log10 of the molar value.

Test system: 422866-222-R5-J1-PDC complex spheroids viability
Assay: Anticancer human tumor 422866-222-R5-J1-PDC patient-derived pancreatic adenocarcinoma cell line growth inhibition [RAS]
Details: for pIC50: curve of first compound; for viability, T/C: stronger effect = lower value
How it was run: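 Multi-cell-type spheroids: tumor cells plus HUVEC endothelial cells and mesenchymal stem cells. RAS-pathway inhibitors were combined with targeted agents, each dosed in half-log steps down from clinical Cmax, or from 10 microM when Cmax was unknown.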

[1] = second compound 0.000949 µM, first compound 0.0316 µM
[2] = second compound 0.000949 µM, first compound 0.1 µM
[3] = second compound 0.000949 µM, first compound 0.316 µM
[4] = second compound 0.000949 µM, first compound 1 µM
[5] = second compound 0.003 µM, first compound 0.0316 µM
[6] = second compound 0.003 µM, first compound 0.1 µM
[7] = second compound 0.003 µM, first compound 0.316 µM
[8] = second compound 0.003 µM, first compound 1 µM
[9] = second compound 0.00949 µM, first compound 0.0316 µM
[10] = second compound 0.00949 µM, first compound 0.1 µM
[11] = second compound 0.00949 µM, first compound 0.316 µM
[12] = second compound 0.00949 µM, first compound 1 µM
[13] = second compound 0.03 µM, first compound 0.0316 µM
[14] = second compound 0.03 µM, first compound 0.1 µM
[15] = second compound 0.03 µM, first compound 0.316 µM
[16] = second compound 0.03 µM, first compound 1 µM
[17] = second compound 0.0949 µM, first compound 0.0316 µM
[18] = second compound 0.0949 µM, first compound 0.1 µM
[19] = second compound 0.0949 µM, first compound 0.316 µM
[20] = second compound 0.0949 µM, first compound 1 µM
[21] = second compound 0.3 µM, first compound 0.0316 µM
[22] = second compound 0.3 µM, first compound 0.1 µM
[23] = second compound 0.3 µM, first compound 0.316 µM
[24] = second compound 0.3 µM, first compound 1 µM
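Further: spheroids exposed to compounds for 7 days.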
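Wherever viability, T/C is given: 100% = DMSO vehicle control viability.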

SMILES: CC(Nc1ccc2c(c1)OCCn1cc(N3C(=O)OCC3C(F)F)nc1-2)C(N)=O (centres undefined) + CCn1c(-c2cc(N3CCN(C)CC3)cnc2C(C)OC)c2c3cc(ccc31)-c1csc(n1)CC(NC(=O)C1CC1C)C(=O)N1CCCC(N1)C(=O)OCC(C)(C)C2
- pIC50 (second compound 0.000949 µM): > 7.50
- pIC50 (second compound 0.003 µM): > 7.50
- pIC50 (second compound 0.00949 µM): > 7.50
- pIC50 (second compound 0.03 µM): > 7.50
- pIC50 (second compound 0.0949 µM): > 7.50
- pIC50 (second compound 0.3 µM): > 7.50
- viability, T/C [1]: 24.6%
- viability, T/C [2]: 19%
- viability, T/C [3]: 13%
- viability, T/C [4]: 11.9%
- viability, T/C (second compound 0.000949 µM, first compound 3.16 µM): 9.45%
- viability, T/C (second compound 0.000949 µM, first compound 10 µM): 10.7%
- viability, T/C [5]: 16.9%
- viability, T/C [6]: 14.2%
- viability, T/C [7]: 9.14%
- viability, T/C [8]: 8.16%
- viability, T/C (second compound 0.003 µM, first compound 3.16 µM): 6.87%
- viability, T/C (second compound 0.003 µM, first compound 10 µM): 5.82%
- viability, T/C [9]: 16.1%
- viability, T/C [10]: 12.1%
- viability, T/C [11]: 9.35%
- viability, T/C [12]: 6.74%
- viability, T/C (second compound 0.00949 µM, first compound 3.16 µM): 5.6%
- viability, T/C (second compound 0.00949 µM, first compound 10 µM): 4.57%
- viability, T/C [13]: 13.4%
- viability, T/C [14]: 11.8%
- viability, T/C [15]: 9.06%
- viability, T/C [16]: 6.27%
- viability, T/C (second compound 0.03 µM, first compound 3.16 µM): 5.7%
- viability, T/C (second compound 0.03 µM, first compound 10 µM): 4.35%
- viability, T/C [17]: 15.5%
- viability, T/C [18]: 12.1%
- viability, T/C [19]: 8.62%
- viability, T/C [20]: 6.05%
- viability, T/C (second compound 0.0949 µM, first compound 3.16 µM): 5.83%
- viability, T/C (second compound 0.0949 µM, first compound 10 µM): 4.73%
- viability, T/C [21]: 13.9%
- viability, T/C [22]: 11.8%
- viability, T/C [23]: 10.2%
- viability, T/C [24]: 6.6%
- viability, T/C (second compound 0.3 µM, first compound 3.16 µM): 5.26%
- viability, T/C (second compound 0.3 µM, first compound 10 µM): 4.96%

SMILES: O=C(c1ccc(F)c(F)c1Nc1ccc(I)cc1F)N1CC(O)([C@@H]2CCCCN2)C1 + CCn1c(-c2cc(N3CCN(C)CC3)cnc2C(C)OC)c2c3cc(ccc31)-c1csc(n1)CC(NC(=O)C1CC1C)C(=O)N1CCCC(N1)C(=O)OCC(C)(C)C2
- pIC50 (second compound 0.000949 µM): > 8.50
- pIC50 (second compound 0.003 µM): > 8.50
- pIC50 (second compound 0.00949 µM): > 8.50
- pIC50 (second compound 0.03 µM): > 8.50
- pIC50 (second compound 0.0949 µM): > 8.50
- pIC50 (second compound 0.3 µM): > 8.50
- viability, T/C (second compound 0.000949 µM, first compound 0.00316 µM): 30.9%
- viability, T/C (second compound 0.000949 µM, first compound 0.01 µM): 27.3%
- viability, T/C [1]: 21.8%
- viability, T/C [2]: 20.4%
- viability, T/C [3]: 15%
- viability, T/C [4]: 14.4%
- viability, T/C (second compound 0.003 µM, first compound 0.00316 µM): 22.9%
- viability, T/C (second compound 0.003 µM, first compound 0.01 µM): 19.1%
- viability, T/C [5]: 16.2%
- viability, T/C [6]: 13.3%
- viability, T/C [7]: 13.4%
- viability, T/C [8]: 15.1%
- viability, T/C (second compound 0.00949 µM, first compound 0.00316 µM): 16%
- viability, T/C (second compound 0.00949 µM, first compound 0.01 µM): 14.8%
- viability, T/C [9]: 14.5%
- viability, T/C [10]: 11.9%
- viability, T/C [11]: 11.9%
- viability, T/C [12]: 13.6%
- viability, T/C (second compound 0.03 µM, first compound 0.00316 µM): 14.3%
- viability, T/C (second compound 0.03 µM, first compound 0.01 µM): 13.4%
- viability, T/C [13]: 13.2%
- viability, T/C [14]: 13.8%
- viability, T/C [15]: 13.9%
- viability, T/C [16]: 14.9%
- viability, T/C (second compound 0.0949 µM, first compound 0.00316 µM): 15.2%
- viability, T/C (second compound 0.0949 µM, first compound 0.01 µM): 16%
- viability, T/C [17]: 13.4%
- viability, T/C [18]: 13.8%
- viability, T/C [19]: 14.5%
- viability, T/C [20]: 15.3%
- viability, T/C (second compound 0.3 µM, first compound 0.00316 µM): 16.7%
- viability, T/C (second compound 0.3 µM, first compound 0.01 µM): 14.9%
- viability, T/C [21]: 15%
- viability, T/C [22]: 15.1%
- viability, T/C [23]: 15.7%
- viability, T/C [24]: 15.6%
